{"source": "paper PMC5218480", "about": "(PLoS ONE, 2017)", "test_system": "MV-4-11 cells", "assay": "Gene expression microarray analysis (Affymetrix PrimeView) and GSEA", "assay_type": "cell-based, human", "parameters": "RFU PODN (11730768_x_at) / Fold change /veh PODN (11730768_x_at) / RFU LINC00158 (11744669_a_at) / Fold change /veh LINC00158 (11744669_a_at) / RFU DUSP10 (11751237_a_at) / Fold change /veh DUSP10 (11751237_a_at) / RFU ID3 (11757404_x_at) / Fold change /veh ID3 (11757404_x_at) / RFU PLEKHG5 (11737974_s_at) / Fold change /veh PLEKHG5 (11737974_s_at) / RFU LRRC4B (11730491_at) / Fold change /veh LRRC4B (11730491_at) / RFU GIMAP4 (11747438_a_at) / Fold change /veh GIMAP4 (11747438_a_at) / RFU KRT8 (11758183_x_at) / Fold change /veh KRT8 (11758183_x_at) / RFU CNN1 (11734310_a_at) / Fold change /veh CNN1 (11734310_a_at) / RFU VPS37D (11726825_at) / Fold change /veh VPS37D (11726825_at) / RFU C10orf10 (11716522_x_at) / Fold change /veh C10orf10 (11716522_x_at) / RFU KIR2DL2 /// KIR2DL4 /// KIR2DL5A /// KIR2DL5B /// KIR2DS1 /// KIR2DS2 /// KIR2DS3 /// KIR2DS4 /// KIR3DL3 /// KIR3DL3 /// KIR3DS1 (11738374_at) / Fold change /veh KIR2DL2 /// KIR2DL4 /// KIR2DL5A /// KIR2DL5B /// KIR2DS1 /// KIR2DS2 /// KIR2DS3 /// KIR2DS4 /// KIR3DL3 /// KIR3DL3 /// KIR3DS1 (11738374_at) / RFU C1QL1 (11718748_at) / Fold change /veh C1QL1 (11718748_at) / RFU TMPRSS4 (11747572_a_at) / Fold change /veh TMPRSS4 (11747572_a_at) / RFU HAMP (11756126_x_at) / Fold change /veh HAMP (11756126_x_at) / RFU RNFT2 (11725882_a_at) / Fold change /veh RNFT2 (11725882_a_at) / RFU NR4A2 (11747474_a_at) / Fold change /veh NR4A2 (11747474_a_at) / RFU ABCC12 (11746883_a_at) / Fold change /veh ABCC12 (11746883_a_at) / RFU TMEM136 (11760407_x_at) / Fold change /veh TMEM136 (11760407_x_at) / RFU CLDN22 /// WWC2 (11732394_at) / Fold change /veh CLDN22 /// WWC2 (11732394_at) / RFU HLA-DPB1 (11760878_x_at) / Fold change /veh HLA-DPB1 (11760878_x_at) / RFU SPINT1 (11716480_a_at) / Fold change /veh SPINT1 (11716480_a_at) / RFU GAP43 (11754022_s_at) / Fold change /veh GAP43 (11754022_s_at) / RFU A4GNT (11735810_at) / Fold change /veh A4GNT (11735810_at) / RFU PRB3 (11715151_x_at) / Fold change /veh PRB3 (11715151_x_at) / RFU TUBB4B (11761932_at) / Fold change /veh TUBB4B (11761932_at) / RFU CAPN14 (11732068_a_at) / Fold change /veh CAPN14 (11732068_a_at) / RFU TMCC2 (11721928_a_at) / Fold change /veh TMCC2 (11721928_a_at) / RFU IRGQ (11745062_a_at) / Fold change /veh IRGQ (11745062_a_at) / RFU FAM174B (11720279_a_at) / Fold change /veh FAM174B (11720279_a_at) / RFU TMPRSS4 (11748680_a_at) / Fold change /veh TMPRSS4 (11748680_a_at) / RFU FAM212B (11763350_a_at) / Fold change /veh FAM212B (11763350_a_at) / RFU PLEKHG5 (11743358_a_at) / Fold change /veh PLEKHG5 (11743358_a_at) / RFU ZSCAN30 (11745921_a_at) / Fold change /veh ZSCAN30 (11745921_a_at) / RFU CMKLR1 (11741424_a_at) / Fold change /veh CMKLR1 (11741424_a_at) / RFU LOC101060620 /// MAPK8IP1 (11723275_at) / Fold change /veh LOC101060620 /// MAPK8IP1 (11723275_at) / RFU SPTSSB (11747773_x_at) / Fold change /veh SPTSSB (11747773_x_at) / RFU PRSS12 (11739890_at) / Fold change /veh PRSS12 (11739890_at) / RFU BIN1 (11741810_x_at) / Fold change /veh BIN1 (11741810_x_at) / RFU WNT11 (11732464_a_at) / Fold change /veh WNT11 (11732464_a_at) / RFU C10orf10 (11716521_a_at) / Fold change /veh C10orf10 (11716521_a_at) / RFU C5orf56 (11738089_at) / Fold change /veh C5orf56 (11738089_at) / RFU CYB561 (11721691_x_at) / Fold change /veh CYB561 (11721691_x_at) / RFU ANKRD19P (11752326_a_at) / Fold change /veh ANKRD19P (11752326_a_at) / RFU OR2T12 /// OR2T33 /// OR2T8 (11738714_s_at) / Fold change /veh OR2T12 /// OR2T33 /// OR2T8 (11738714_s_at) / RFU VCAN (11748164_a_at) / Fold change /veh VCAN (11748164_a_at) / RFU JSRP1 (11732532_at) / Fold change /veh JSRP1 (11732532_at) / RFU KRTAP10-11 (11738290_x_at) / Fold change /veh KRTAP10-11 (11738290_x_at) / RFU MYO3A (11730013_a_at) / Fold change /veh MYO3A (11730013_a_at) / RFU EBF3 (11725865_a_at) / Fold change /veh EBF3 (11725865_a_at) / RFU CAMK2N1 (11719241_x_at) / Fold change /veh CAMK2N1 (11719241_x_at) / RFU C5orf56 (11738088_a_at) / Fold change /veh C5orf56 (11738088_a_at) / RFU OLFML3 (11715873_a_at) / Fold change /veh OLFML3 (11715873_a_at) / RFU LOC100653217 /// NTM (11731650_a_at) / Fold change /veh LOC100653217 /// NTM (11731650_a_at) / RFU MAPK11 (11762145_a_at) / Fold change /veh MAPK11 (11762145_a_at) / RFU FIZ1 (11724087_x_at) / Fold change /veh FIZ1 (11724087_x_at) / RFU OASL (11726364_x_at) / Fold change /veh OASL (11726364_x_at) / RFU SOX15 (11748057_x_at) / Fold change /veh SOX15 (11748057_x_at) / RFU CD79A (11719716_a_at) / Fold change /veh CD79A (11719716_a_at) / RFU HIST1H1D (11736915_at) / Fold change /veh HIST1H1D (11736915_at) / RFU CASKIN2 (11723855_a_at) / Fold change /veh CASKIN2 (11723855_a_at) / RFU LOC730098 (11760151_x_at) / Fold change /veh LOC730098 (11760151_x_at) / RFU OR4N2 (11742367_at) / Fold change /veh OR4N2 (11742367_at) / RFU PRRT2 (11749266_a_at) / Fold change /veh PRRT2 (11749266_a_at) / RFU SNX32 (11753110_a_at) / Fold change /veh SNX32 (11753110_a_at) / RFU CDHR5 (11726645_a_at) / Fold change /veh CDHR5 (11726645_a_at) / RFU RCAN1 (11760418_a_at) / Fold change /veh RCAN1 (11760418_a_at) / RFU FAM167A (11723789_a_at) / Fold change /veh FAM167A (11723789_a_at) / RFU FAM26E (11764081_at) / Fold change /veh FAM26E (11764081_at) / RFU ISYNA1 (11749810_s_at) / Fold change /veh ISYNA1 (11749810_s_at) / RFU ACY1 (11761880_at) / Fold change /veh ACY1 (11761880_at) / RFU 11764098_at / Fold change /veh 11764098_at / RFU SAMD14 (11745864_x_at) / Fold change /veh SAMD14 (11745864_x_at) / RFU NPB (11741838_a_at) / Fold change /veh NPB (11741838_a_at) / RFU TMPRSS6 (11731388_a_at) / Fold change /veh TMPRSS6 (11731388_a_at) / RFU KRTAP10-2 (11738614_at) / Fold change /veh KRTAP10-2 (11738614_at) / RFU ARHGAP8 /// PRR5-ARHGAP8 (11727945_x_at) / Fold change /veh ARHGAP8 /// PRR5-ARHGAP8 (11727945_x_at) / RFU KRTAP5-7 /// NADSYN1 (11734609_at) / Fold change /veh KRTAP5-7 /// NADSYN1 (11734609_at) / RFU RASL12 (11751679_a_at) / Fold change /veh RASL12 (11751679_a_at) / RFU CDKN2B (11736163_a_at) / Fold change /veh CDKN2B (11736163_a_at) / RFU PRF1 (11729649_at) / Fold change /veh PRF1 (11729649_at) / RFU, ZNF638 /// ZNF638-IT1 / Fold change vs veh, ZNF638 /// ZNF638-IT1 / RFU, PANK3 / Fold change vs veh, PANK3 / RFU, SH3YL1 / Fold change vs veh, SH3YL1 / RFU, ZEB2 / Fold change vs veh, ZEB2 / RFU, NRIP1 / Fold change vs veh, NRIP1 / RFU, PTTG1IP / Fold change vs veh, PTTG1IP / RFU, CAPN2 / Fold change vs veh, CAPN2 / RFU, MED14 / Fold change vs veh, MED14 / RFU, SNORA58 / Fold change vs veh, SNORA58 / RFU, C1orf63 / Fold change vs veh, C1orf63 / RFU, LRRFIP1 / Fold change vs veh, LRRFIP1 / RFU, NDUFAF7 / Fold change vs veh, NDUFAF7 / RFU, SLC12A2 / Fold change vs veh, SLC12A2 / RFU, IBTK / Fold change vs veh, IBTK / RFU, ESF1 / Fold change vs veh, ESF1 / Fold change vs veh, TMEM50B / RFU, TAOK1 / Fold change vs veh, TAOK1 / RFU, ACBD3 / Fold change vs veh, ACBD3 / RFU, TMA16 / Fold change vs veh, TMA16 / RFU, RWDD3 / Fold change vs veh, RWDD3 / RFU, BCAT1 / Fold change vs veh, BCAT1 / RFU, EDEM3 / Fold change vs veh, EDEM3 / RFU, TMEM33 / Fold change vs veh, TMEM33 / RFU, WDR75 / Fold change vs veh, WDR75 / RFU, AHCTF1 / Fold change vs veh, AHCTF1 / RFU, TFRC / Fold change vs veh, TFRC / RFU, ZDHHC17 / Fold change vs veh, ZDHHC17 / RFU, NOM1 / Fold change vs veh, NOM1 / RFU, ARL8B / Fold change vs veh, ARL8B / RFU, ZBTB11 / Fold change vs veh, ZBTB11 / RFU, TAMM41 / Fold change vs veh, TAMM41 / RFU, KIAA1704 /// LOC100996395 / Fold change vs veh, KIAA1704 /// LOC100996395 / RFU, ING1 / Fold change vs veh, ING1 / RFU, TRMT61B / Fold change vs veh, TRMT61B / RFU, FUBP3 / Fold change vs veh, FUBP3 / RFU, TP53 / Fold change vs veh, TP53 / RFU, TNKS2 / Fold change vs veh, TNKS2 / RFU, ZFP14 / Fold change vs veh, ZFP14 / RFU, ACTR2 / Fold change vs veh, ACTR2 / RFU, PPP3R1 / Fold change vs veh, PPP3R1 / RFU, PIK3R1 / Fold change vs veh, PIK3R1 / RFU, HNRNPA1 / Fold change vs veh, HNRNPA1 / RFU, RNF170 / Fold change vs veh, RNF170 / RFU, ZNF28 / Fold change vs veh, ZNF28 / RFU, RNGTT / Fold change vs veh, RNGTT / RFU, OGT / Fold change vs veh, OGT / RFU, BRD1 / Fold change vs veh, BRD1 / RFU, MARS / Fold change vs veh, MARS / RFU, ZNF655 / Fold change vs veh, ZNF655 / RFU, FAHD1 / Fold change vs veh, FAHD1 / RFU, BDP1 / Fold change vs veh, BDP1 / RFU, LRRCC1 / Fold change vs veh, LRRCC1 / RFU, ARID1A / Fold change vs veh, ARID1A / RFU, ZNF146 / Fold change vs veh, ZNF146 / RFU, ZNF330 / Fold change vs veh, ZNF330 / RFU, GPN3 / Fold change vs veh, GPN3 / RFU, C9orf123 / Fold change vs veh, C9orf123 / RFU, N4BP2L2 / Fold change vs veh, N4BP2L2 / RFU, ARFIP1 / Fold change vs veh, ARFIP1 / RFU, FAM179B / Fold change vs veh, FAM179B / RFU, BCL10 / Fold change vs veh, BCL10 / RFU, UHRF1BP1L / Fold change vs veh, UHRF1BP1L / RFU, BET1 / Fold change vs veh, BET1 / RFU, CNOT2 / Fold change vs veh, CNOT2 / RFU, ZNF268 / Fold change vs veh, ZNF268 / Fold change vs veh, ZNF507 / RFU, DGCR2 / Fold change vs veh, DGCR2 / RFU, WDSUB1 / Fold change vs veh, WDSUB1 / Fold change vs veh, HSP90B1 /// MIR3652 / RFU, ADSS / Fold change vs veh, ADSS / RFU, GK / Fold change vs veh, GK / RFU, ZNF148 / Fold change vs veh, ZNF148 / RFU, TAF9 / Fold change vs veh, TAF9 / RFU, SLC1A5 / Fold change vs veh, SLC1A5 / RFU, SLMO2 / Fold change vs veh, SLMO2 / RFU, ABCC4 / Fold change vs veh, ABCC4 / RFU, LOC101060439 /// RAP1B / Fold change vs veh, LOC101060439 /// RAP1B / RFU, RFX7 / Fold change vs veh, RFX7 / RFU, GTPBP10 / Fold change vs veh, GTPBP10 / RFU, CNEP1R1 / Fold change vs veh, CNEP1R1 / RFU, BIVM-ERCC5 /// ERCC5 / Fold change vs veh, BIVM-ERCC5 /// ERCC5 / RFU, ILF3 / Fold change vs veh, ILF3 / RFU 11762660_at / Fold change /veh 11762660_at / RFU VCAN (11757783_s_at) / Fold change /veh VCAN (11757783_s_at) / RFU DDX43 (11728927_at) / Fold change /veh DDX43 (11728927_at) / RFU KRT8 (11758188_x_at) / Fold change /veh KRT8 (11758188_x_at) / RFU NKD1 (11759106_at) / Fold change /veh NKD1 (11759106_at) / RFU SRD5A1 (11742802_a_at) / Fold change /veh SRD5A1 (11742802_a_at) / RFU TPSAB1 /// TPSB2 (11721975_s_at) / Fold change /veh TPSAB1 /// TPSB2 (11721975_s_at) / RFU GSTM3 (11746129_a_at) / Fold change /veh GSTM3 (11746129_a_at) / RFU IL23R (11737362_x_at) / Fold change /veh IL23R (11737362_x_at) / RFU TMEM51 (11727254_a_at) / Fold change /veh TMEM51 (11727254_a_at) / RFU PIWIL2 (11732686_x_at) / Fold change /veh PIWIL2 (11732686_x_at) / RFU ORM1 (11744905_x_at) / Fold change /veh ORM1 (11744905_x_at) / RFU CCDC152 (11743942_at) / Fold change /veh CCDC152 (11743942_at) / RFU ECM1 (11717891_a_at) / Fold change /veh ECM1 (11717891_a_at) / RFU IL23R (11748794_a_at) / Fold change /veh IL23R (11748794_a_at) / RFU TNFAIP8L3 (11732012_x_at) / Fold change /veh TNFAIP8L3 (11732012_x_at) / RFU MBOAT4 (11741988_at) / Fold change /veh MBOAT4 (11741988_at) / RFU 11764193_at / Fold change /veh 11764193_at / RFU TMEM53 (11763286_at) / Fold change /veh TMEM53 (11763286_at) / RFU MAGEB2 (11727129_at) / Fold change /veh MAGEB2 (11727129_at) / RFU TMEM200A (11744735_a_at) / Fold change /veh TMEM200A (11744735_a_at) / RFU CCDC152 (11751479_a_at) / Fold change /veh CCDC152 (11751479_a_at) / RFU FAM211A (11726209_a_at) / Fold change /veh FAM211A (11726209_a_at) / RFU RGS16 (11746705_a_at) / Fold change /veh RGS16 (11746705_a_at) / RFU VCAN (11755009_s_at) / Fold change /veh VCAN (11755009_s_at) / RFU RHOB (11743442_s_at) / Fold change /veh RHOB (11743442_s_at) / RFU RGS16 (11720943_a_at) / Fold change /veh RGS16 (11720943_a_at) / RFU RGS16 (11720944_at) / Fold change /veh RGS16 (11720944_at) / RFU, VPS4B / Fold change vs veh, VPS4B / RFU, CREB1 / Fold change vs veh, CREB1 / RFU, DNAJC13 / Fold change vs veh, DNAJC13 / RFU, GNAQ / Fold change vs veh, GNAQ / RFU, CDK5R1 / Fold change vs veh, CDK5R1 / RFU, ZRANB3 / Fold change vs veh, ZRANB3 / RFU, CUL4A / Fold change vs veh, CUL4A / RFU, CCNY / Fold change vs veh, CCNY / RFU, UFL1 / Fold change vs veh, UFL1 / RFU, COG3 / Fold change vs veh, COG3 / RFU, DIAPH2 / Fold change vs veh, DIAPH2 / RFU, SKA2 / Fold change vs veh, SKA2 / RFU, AFF3 / Fold change vs veh, AFF3 / RFU, LMF1 / Fold change vs veh, LMF1 / RFU, IPO11 / Fold change vs veh, IPO11 / RFU, DFFB / Fold change vs veh, DFFB / RFU, FOXP1 / Fold change vs veh, FOXP1 / RFU, CARD8 / Fold change vs veh, CARD8 / RFU, STRN3 / Fold change vs veh, STRN3 / RFU, ADK / Fold change vs veh, ADK / RFU, RASSF2 / Fold change vs veh, RASSF2 / RFU, WIPF1 / Fold change vs veh, WIPF1 / RFU, LARP1B / Fold change vs veh, LARP1B / RFU, RASA1 / Fold change vs veh, RASA1 / RFU, RB1 / Fold change vs veh, RB1 / RFU, PPFIA1 / Fold change vs veh, PPFIA1 / RFU, MAT2A / Fold change vs veh, MAT2A / RFU, CCT5 / Fold change vs veh, CCT5 / RFU, WDR92 / Fold change vs veh, WDR92 / RFU, CUX1 / Fold change vs veh, CUX1 / RFU, TTC7A / Fold change vs veh, TTC7A / RFU, TMEM135 / Fold change vs veh, TMEM135 / RFU, DEPTOR / Fold change vs veh, DEPTOR / RFU, CPM / Fold change vs veh, CPM / RFU, DNAJB6 / Fold change vs veh, DNAJB6 / RFU, CACNA2D3 / Fold change vs veh, CACNA2D3 / RFU, DTX4 / Fold change vs veh, DTX4 / RFU, TFCP2 / Fold change vs veh, TFCP2 / RFU, GMCL1 /// GMCL1P1 / Fold change vs veh, GMCL1 /// GMCL1P1 / RFU, AEBP2 / Fold change vs veh, AEBP2 / RFU, SNHG1 /// SNORD22 /// SNORD25 /// SNORD26 /// SNORD27 /// SNORD28 /// SNORD29 /// SNORD31 / Fold change vs veh, SNHG1 /// SNORD22 /// SNORD25 /// SNORD26 /// SNORD27 /// SNORD28 /// SNORD29 /// SNORD31 / Fold change (Aza/veh), C12orf56 (ProbeSet 11735607_a_at) / Fold change (ACY-1035/veh), C12orf56 (ProbeSet 11735607_a_at) / Fold change (Aza/veh), FGFR1OP (ProbeSet 11751329_s_at) / Fold change (ACY-1035/veh), FGFR1OP (ProbeSet 11751329_s_at) / Fold change (Aza/veh), VPS36 (ProbeSet 11739960_a_at) / Fold change (ACY-1035/veh), VPS36 (ProbeSet 11739960_a_at) / RFU SYPL1 (11715823_x_at) / Fold change /veh SYPL1 (11715823_x_at) / RFU IGFBP7 (11715501_s_at) / Fold change /veh IGFBP7 (11715501_s_at) / RFU REEP3 (11722064_at) / Fold change /veh REEP3 (11722064_at) / RFU IGLL1 (11728026_x_at) / Fold change /veh IGLL1 (11728026_x_at): dose or concentration left out as unconfirmed", "conditions": "ProbeSet 11733831_s_at; LIST D", "data": [{"smiles": "Nc1ccc(-c2cccs2)cc1NC(=O)c1ccc2c(c1)cc(C1CC1)n2CCN1CCOCC1", "note": "[ACY-1035]", "values": [{"measurement": "Fold change vs veh, GMCL1 /// GMCL1P1", "result": 0.86}]}]}
